Data published in ChEMBL document CHEMBL5360600, “Optimization of 1,2,4-Triazole-Based p97 Inhibitors for the Treatment of Cancer” (ACS Med Chem Lett, 2023).
Converted amounts (≈) assume the structure as drawn. The source made the active and inactive calls. The rule behind the calls is not given here.

How the values were obtained:
[1] = Metabolic stability in mouse liver microsome assessed as half life at 1 uM incubated upto 45 mins in presence of NADPH-regenerating system by LC-MS analysis; assay type: ADME; settings: liver microsomes
[2] = Solubility of compound at pH 7.4 in PBS by UV/visible spectrophotometer analysis; assay type: physicochemical
HCT-116 = assay: Cytotoxicity against human HCT-116 cells assessed as reduction in cell viability incubated for 48 hrs by celltiter glo-luminescent assay; assay type: functional, cell-based; settings: HCT-116, 48 h
[3] = target: T1, Transitional endoplasmic reticulum ATPase (Homo sapiens, UniProt P55072); assay: Inhibition of p97 in human HCT-116 cells assessed as increase in caspase-3 level at 1 uM incubated for 24 hrs by quantitative sandwich immunoassay method relative to control; assay type: cell-based
Target sequence in this assay (P55072 2-806 limits assumed): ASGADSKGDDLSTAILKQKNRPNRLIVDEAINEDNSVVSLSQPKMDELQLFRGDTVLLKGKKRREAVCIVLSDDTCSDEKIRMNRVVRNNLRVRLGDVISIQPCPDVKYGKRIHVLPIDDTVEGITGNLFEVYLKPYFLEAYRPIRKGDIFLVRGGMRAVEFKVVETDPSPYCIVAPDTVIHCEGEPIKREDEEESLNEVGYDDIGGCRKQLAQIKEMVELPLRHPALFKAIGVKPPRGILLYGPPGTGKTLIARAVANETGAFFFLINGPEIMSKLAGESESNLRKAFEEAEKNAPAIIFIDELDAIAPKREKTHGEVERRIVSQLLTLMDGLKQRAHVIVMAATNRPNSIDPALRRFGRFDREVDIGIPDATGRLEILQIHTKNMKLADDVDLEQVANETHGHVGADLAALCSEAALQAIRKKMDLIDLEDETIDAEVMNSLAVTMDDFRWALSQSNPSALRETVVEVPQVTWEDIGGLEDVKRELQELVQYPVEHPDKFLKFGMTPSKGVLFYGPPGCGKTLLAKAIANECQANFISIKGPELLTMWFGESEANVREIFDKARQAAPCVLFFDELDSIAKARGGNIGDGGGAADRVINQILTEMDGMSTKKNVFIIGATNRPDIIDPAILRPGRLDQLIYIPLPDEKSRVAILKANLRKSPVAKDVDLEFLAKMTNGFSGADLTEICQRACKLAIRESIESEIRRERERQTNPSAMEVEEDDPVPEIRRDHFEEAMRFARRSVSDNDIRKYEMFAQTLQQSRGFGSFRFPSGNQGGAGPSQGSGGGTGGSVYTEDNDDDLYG

[4] = Cmax in CD-1 mouse at 50 mg/kg, ip incubated upto 24 hrs by LC-MS/MS analysis; assay type: ADME, organism-based; design: time < 24 hrs, dose 50 mg/kg, route ip; settings: in vivo
[5] = Cmax in CD-1 mouse at 50 mg/kg, po incubated upto 24 hrs by LC-MS/MS analysis; assay type: ADME, organism-based; design: dose 50 mg/kg, time < 24 hrs, route po; settings: in vivo
[6] = AUClast in CD-1 mouse at 5 mg/kg, iv incubated upto 24 hrs by LC-MS/MS analysis; assay type: ADME, organism-based; design: dose 5 mg/kg, time < 24 hrs, route iv; settings: in vivo
[7] = AUClast in CD-1 mouse at 50 mg/kg, ip incubated upto 24 hrs by LC-MS/MS analysis; assay type: ADME, organism-based; design: time < 24 hrs, dose 50 mg/kg, route ip; settings: in vivo
[8] = AUClast in CD-1 mouse at 50 mg/kg, po incubated upto 24 hrs by LC-MS/MS analysis; assay type: ADME, organism-based; design: time < 24 hrs, dose 50 mg/kg, route po; settings: in vivo
[9] = Volume of distribution at steady state in CD-1 mouse at 5 mg/kg, iv incubated upto 24 hrs by LC-MS/MS analysis; assay type: ADME, organism-based; settings: in vivo, read-out: Vdss
[10] = Half life in CD-1 mouse at 5 mg/kg, iv incubated upto 24 hrs by LC-MS/MS analysis; assay type: ADME, organism-based; settings: in vivo
[11] = Half life in CD-1 mouse at 50 mg/kg, ip incubated upto 24 hrs by LC-MS/MS analysis; assay type: ADME, organism-based; settings: in vivo
[12] = Half life in CD-1 mouse at 50 mg/kg, po incubated upto 24 hrs by LC-MS/MS analysis; assay type: ADME, organism-based; settings: in vivo
[13] = Clearance in CD-1 mouse at 5 mg/kg, iv incubated upto 24 hrs by LC-MS/MS analysis; assay type: ADME, organism-based; settings: in vivo
[14] = Oral bioavailability in CD-1 mouse at 50 mg/kg incubated upto 24 hrs by LC-MS/MS analysis; assay type: ADME, organism-based; settings: in vivo
[15] = target: T1, Transitional endoplasmic reticulum ATPase; assay: Inhibition of p97 in human HCT-116 cells assessed as increase in caspase-3 level at 0.04 to 6 uM pretreated for 2 hrs followed by washout and measured after 6 to 24 hrs by quantitative sandwich immunoassay method; assay type: cell-based; settings: dose 0.04-6 µM
Target sequence in this assay (P55072 2-806 limits assumed): as above

[16] = target: T1, Transitional endoplasmic reticulum ATPase; assay: Inhibition of p97 (unknown origin) ATPase activity by Biomol Green Reagent based microplate reader analysis
Target sequence in this assay (P55072 whole entry): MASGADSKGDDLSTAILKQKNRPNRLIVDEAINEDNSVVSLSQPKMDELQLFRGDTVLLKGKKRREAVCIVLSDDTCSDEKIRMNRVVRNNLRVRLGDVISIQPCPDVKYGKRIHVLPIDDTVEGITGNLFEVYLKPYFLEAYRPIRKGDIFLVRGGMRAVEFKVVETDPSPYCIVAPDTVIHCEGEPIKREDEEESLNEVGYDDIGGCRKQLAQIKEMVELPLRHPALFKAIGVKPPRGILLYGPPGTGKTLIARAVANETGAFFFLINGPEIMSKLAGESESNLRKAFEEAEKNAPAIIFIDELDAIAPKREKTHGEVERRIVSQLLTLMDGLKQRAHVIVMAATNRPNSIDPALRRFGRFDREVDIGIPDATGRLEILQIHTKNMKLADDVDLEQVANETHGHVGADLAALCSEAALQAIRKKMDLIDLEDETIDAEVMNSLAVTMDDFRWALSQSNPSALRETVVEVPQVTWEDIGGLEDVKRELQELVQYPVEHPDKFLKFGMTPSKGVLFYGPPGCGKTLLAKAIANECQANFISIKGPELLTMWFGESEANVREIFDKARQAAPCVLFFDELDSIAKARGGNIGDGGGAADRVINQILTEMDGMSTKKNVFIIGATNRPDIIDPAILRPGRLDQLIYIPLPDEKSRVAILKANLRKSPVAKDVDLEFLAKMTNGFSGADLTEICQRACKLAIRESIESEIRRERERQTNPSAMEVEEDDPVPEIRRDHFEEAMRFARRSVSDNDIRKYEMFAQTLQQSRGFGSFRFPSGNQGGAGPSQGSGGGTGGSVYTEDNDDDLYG

[17] = target: T1, Transitional endoplasmic reticulum ATPase; assay: Inhibition of p97 in human HeLa cells expressing UbG76V-GFP/ODD-Luc assessed as accumulation of Ub-GFP incubated for 6 hrs by confocal microscopic analysis; assay type: cell-based
Target sequence in this assay (P55072 whole entry): as above

[18] = Solubility of compound in PBS incubated for 30 minutes by clear-bottomed UV analysis; assay type: physicochemical
[19] = target: T1, Transitional endoplasmic reticulum ATPase; assay: Inhibition of p97 in human HCT-116 cells assessed as increase in Ub-K48 level at 100 nM incubated for 6 hrs by quantitative sandwich immunoassay method relative to control; assay type: cell-based
Target sequence in this assay (P55072 2-806 limits assumed): as the sequence (P55072 2-806 limits assumed) above

Compound	half-life at […], 1 µM [1] [min]	IC50 [16] [µM]	EC50 [17] [µM]	solubility at 0.5 h [18] [µM]	IC50 (HCT-116) [µM]	other results
CN1CCC(NC(=O)OCC#Cc2cc(F)c(OCc3nnc(S[C@H]4C=CCCC4)n3-c3cccnc3)cc2F)CC1	5				0.34	solubility [2]: 74 µM (≈ 44 µg/mL); inhibition [3]: Active; Cmax [4]: 12700 ng/mL; Cmax [5]: 366 ng/mL; AUC(0-t) at 24 h [6]: 371 ng·h/mL; AUC(0-t) at 24 h [7]: 9290 ng·h/mL; AUC(0-t) at 24 h [8]: 601 ng·h/mL; Vd [9]: 5.9 L/kg; half-life [10]: 41.4 min; half-life [11]: 96 min; half-life [12]: 126 min; clearance [13]: 234 mL/min/kg; bioavailability [14]: 17%; inhibition [15]: Active
Cc1cc(OCc2nnc(SC3CCC(F)(F)CC3)n2-c2cccnc2)ccc1-c1ccc(S(C)(=O)=O)cc1	< 10	0.3	> 40	110 (≈ 62.8 µg/mL)		
Cc1cc(OCc2nnc(SC3C=CCCC3)n2-c2cccnc2)ccc1C#CCOC(=O)NCCN1CCN(C)CC1 (centres undefined)	8	0.021	0.89		2.8	
CN1CCC(NC(=O)OCC#Cc2cc(F)c(OCc3nnc(S[C@@H]4C=CCCC4)n3-c3cccnc3)cc2F)CC1					4.74	
Cc1cc(OCc2nnc(SC3C=CCCC3)n2-c2cccnc2)ccc1C#CCNC(=O)OC(C)(C)C (centres undefined)	7	0.15	11	92 (≈ 48.9 µg/mL)		
Cc1cc(OCc2nnc(SC3C=CCCC3)n2-c2cccnc2)ccc1C#CCOC(=O)NC1CCN(C)CC1 (centres undefined)	7	0.023	0.82	61 (≈ 34.9 µg/mL)	2.1	solubility [2]: 61 µM (≈ 34.9 µg/mL)
Cc1cc(OCc2nnc(SC3C=CCCC3)n2-c2cccnc2)ccc1C#CCNC1CCN(C)CC1 (centres undefined)	8	0.041	1.5	130 (≈ 68.7 µg/mL)		
CN1CCN(CCNC(=O)OCC#Cc2ccc(OCc3nnc(SC4C=CCCC4)n3-c3cccnc3)cc2F)CC1 (centres undefined)	4		0.82		1.35	solubility [2]: 60 µM (≈ 36.3 µg/mL)
Cc1cc(OCc2nnc(SC3C=CCCC3)n2-c2cccnc2)ccc1C#CCO (centres undefined)	1.2	0.04	1.3	39 (≈ 16.9 µg/mL)	4.7	solubility [2]: 39 µM (≈ 16.9 µg/mL)
Cc1cc(OCc2nnc(SC3C=CCCC3)n2-c2cccnc2)ccc1-c1ccc(S(C)(=O)=O)cc1 (centres undefined)	< 10	0.034	0.94	140 (≈ 74.6 µg/mL)		
CN1CCC(NC(=O)OCC#Cc2ccc(OCc3nnc(SC4C=CCCC4)n3-c3cccnc3)c(F)c2F)CC1 (centres undefined)	8		1.3		3.2	solubility [2]: 54 µM (≈ 32.1 µg/mL)
Cc1cc(OCc2nnc(SC3C=CCCC3)n2-c2cccnc2)ccc1C#CCOC(=O)N1CCN(C)CC1 (centres undefined)	< 10	0.029	1.8		2.4	

Further lines, with some results ahead:

half-life at […], 1 µM [1] [min]	IC50 [16] [µM]	EC50 [17] [µM]	solubility at 0.5 h [18] [µM]	Compound	IC50 (HCT-116) [µM]	other results
8	0.06	2.4	170 (≈ 90.9 µg/mL)	Cc1cc(OCc2nnc(SC3CCCCC3)n2-c2cccnc2)ccc1-c1ccc(S(C)(=O)=O)cc1		
13	2.01	> 40	260 (≈ 133 µg/mL)	COCCSc1nnc(COc2ccc(-c3ccc(S(C)(=O)=O)cc3)c(C)c2)n1-c1cccnc1		
	0.032	1.9		CCC(=O)NCC#Cc1ccc(OCc2nnc(SC3C=CCCC3)n2-c2cccnc2)cc1C (centres undefined)		
< 10	0.46	47	150 (≈ 80.5 µg/mL)	Cc1cc(OCc2nnc(SC3CCOCC3)n2-c2cccnc2)ccc1-c1ccc(S(C)(=O)=O)cc1		
24		4.5	53 (≈ 22.9 µg/mL)	Cc1cc(OCc2nnc(SC3C=CCCC3)n2-c2cccnc2)ccc1C#CCN (centres undefined)		
8	0.0097	0.64		[2H]C1([2H])C([2H])([2H])C([2H])([2H])C([2H])(Sc2nnc(COc3cc(F)c(C#CCOC(=O)NC4CCN(C)CC4)cc3F)n2-c2cccnc2)C1([2H])[2H]	1.37	solubility [2]: 83 µM (≈ 49.1 µg/mL)
> 60	> 6	> 40	370 (≈ 198 µg/mL)	Cc1cc(OCc2nnc(SC3CCNCC3)n2-c2cccnc2)ccc1-c1ccc(S(C)(=O)=O)cc1		
6			29 (≈ 15.4 µg/mL)	[2H]C1([2H])C([2H])([2H])C([2H])([2H])C([2H])(Sc2nnc(COc3ccc(-c4ccc(S(C)(=O)=O)cc4)c(C)c3)n2-c2cccnc2)C1([2H])[2H]		
13	0.32	> 40	9 (≈ 4.96 µg/mL)	Cc1cc(OCc2nnc(SC3CCCC=C3F)n2-c2cccnc2)ccc1-c1ccc(S(C)(=O)=O)cc1 (centres undefined)		
7		2.7		Cc1cc(OCc2nnc(SC3C=CCCC3)n2-c2cccnc2)ccc1C#CCNS(C)(=O)=O (centres undefined)		
9		> 40	24 (≈ 14.2 µg/mL)	Cc1cc(OCc2nnc(SC3C=CCCC3)n2-c2cccnc2)ccc1C#CCNS(=O)(=O)c1ccc(F)cc1 (centres undefined)		
3				CN1CCC(NC(=O)OCC#Cc2cc(F)c(OCc3nnc(SC4C=CCCC4)n3-c3cccnc3)cc2F)CC1 (centres undefined)	0.85	solubility [2]: 71 µM (≈ 42.2 µg/mL); inhibition [19]: 133%
9				Cc1cc(OCc2nnc(SC3CCCC3)n2-c2cccnc2)ccc1-c1ccc(S(C)(=O)=O)cc1		
	0.011	0.36		CN1CCC(NC(=O)OCC#Cc2c(F)cc(OCc3nnc(SC4C=CCCC4)n3-c3cccnc3)cc2F)CC1 (centres undefined)	0.73	inhibition [19]: 123%
8		2.7		Cc1cc(OCc2nnc(SC3C=CCCC3)n2-c2cccnc2)ccc1C#CCNC(C)C (centres undefined)		
